This experiment deals with T1, VEGFR-2 (Homo sapiens, UniProt P35968).
T1 construct: gene KDR
Nature of the experiment: SPR with VEGFR-2 immobilized on sensor chip, compound […]. Format: binding.

T1 sequence (P35968 20-1356): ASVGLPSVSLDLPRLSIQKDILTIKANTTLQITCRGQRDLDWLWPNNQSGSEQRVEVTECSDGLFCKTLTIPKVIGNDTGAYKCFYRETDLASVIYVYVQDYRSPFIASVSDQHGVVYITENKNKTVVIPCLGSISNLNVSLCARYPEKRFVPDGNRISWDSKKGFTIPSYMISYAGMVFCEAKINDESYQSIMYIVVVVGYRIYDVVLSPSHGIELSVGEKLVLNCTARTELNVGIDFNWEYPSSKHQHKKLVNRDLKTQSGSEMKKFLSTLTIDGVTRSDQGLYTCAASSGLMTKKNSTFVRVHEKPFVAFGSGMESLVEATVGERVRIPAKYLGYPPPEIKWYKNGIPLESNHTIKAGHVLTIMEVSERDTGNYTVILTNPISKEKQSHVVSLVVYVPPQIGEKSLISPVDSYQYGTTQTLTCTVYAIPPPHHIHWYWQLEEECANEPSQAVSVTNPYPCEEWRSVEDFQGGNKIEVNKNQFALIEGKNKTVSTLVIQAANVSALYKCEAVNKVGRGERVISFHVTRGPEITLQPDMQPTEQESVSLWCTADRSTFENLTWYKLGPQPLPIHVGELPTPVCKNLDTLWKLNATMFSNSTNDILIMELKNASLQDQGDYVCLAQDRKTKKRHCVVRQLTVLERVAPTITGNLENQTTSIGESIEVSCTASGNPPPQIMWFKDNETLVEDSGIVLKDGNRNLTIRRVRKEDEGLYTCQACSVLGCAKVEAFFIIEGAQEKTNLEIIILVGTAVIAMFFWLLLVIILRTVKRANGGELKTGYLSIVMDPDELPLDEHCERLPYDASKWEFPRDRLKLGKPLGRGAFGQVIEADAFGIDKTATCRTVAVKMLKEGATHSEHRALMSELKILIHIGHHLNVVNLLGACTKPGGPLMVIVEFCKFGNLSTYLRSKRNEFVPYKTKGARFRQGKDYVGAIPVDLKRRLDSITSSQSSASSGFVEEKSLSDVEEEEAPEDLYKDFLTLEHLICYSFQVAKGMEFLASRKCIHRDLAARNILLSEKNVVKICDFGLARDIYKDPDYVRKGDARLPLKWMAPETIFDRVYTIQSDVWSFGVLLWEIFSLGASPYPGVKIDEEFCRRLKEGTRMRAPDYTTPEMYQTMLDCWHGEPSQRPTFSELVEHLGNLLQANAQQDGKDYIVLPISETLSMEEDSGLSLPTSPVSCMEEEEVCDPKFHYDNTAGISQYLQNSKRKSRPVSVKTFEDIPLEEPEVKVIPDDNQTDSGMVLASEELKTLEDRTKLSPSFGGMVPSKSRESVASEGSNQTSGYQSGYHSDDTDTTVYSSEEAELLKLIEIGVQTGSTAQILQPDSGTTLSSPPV

In turn, `CC1=C(C)C2=CC(=O)c3c(c(O)c4occ(C)c4c3O)C2(C)CC1` (stereo not shown) [ajuforrestin A] gave a dissociation constant Kd of 45 µM.

The Kd is a measure of binding affinity in units of concentration. A low value points to tighter binding.

The values above are taken from article PMC12383317, “Ajuforrestin A Inhibits Tumor Proliferation and Migration by Targeting the STAT3/FAK Signaling Pathways and VEGFR-2” (Biology, 2025).
